# Reference: US5521216A, “Chromone derivative, and aldose reductase inhibitor comprising said compound as active ingredient” (Tsumura & Co., priority 1992, dated 1996)
# Assays:
# Aldose reductase [1] = target: T1, Aldose reductase (Rattus norvegicus, UniProt P07943); assay: Aldose reductase activity measurement (in vitro), rat crystalline lens enzyme, NADP fluorescence; assay type: biochemical, Wistar male rats; details: 20 mM glucose substrate, 30 min, 30° C., pH 7.0, read-out: 50% inhibition concentration [IC50 (M)]
# T1 construct: The crystalline lenses were homogenized in 135 mM sodium-potassium-phosphate buffer; from tissue; host or cells: crystalline lens of 6 week-old male Wistar rats (30,000 rpm supernatant)
# Method: <Aldose reductase activity measurement (in vitro)>
# 6 week-old Wistar male rats were sacrificed under ether anesthesia and immediately the crystalline lenses were scissored and stored at -20° C.
# The crystalline lenses were homogenized in 135 mM sodium-potassium-phosphate buffer, pH 7.0, and centrifuged for 30 min. at 30,000 rpm. The supernatant was used as an aldose-reductase solution. All the above procedures were carried out at 4° C. and the enzyme solution was stored at -20° C.
# Aldose reductase activity was determined according to the method as described by Dufrane et al. (Biochemical Medicine, 32, 99-105 (1984)), as follows.
# 100 μl of the above enzyme solution and 100 μl of a sample solution prepared by dissolving a compound obtained in the following examples to a final concentration of from 1.0×10^-5 to 4.0×10^-7 M in dimethylsulfoxide (DMSO) were added to 800 μl of 135 mM sodium-potassium-phosphate buffer, pH 7.0, containing 100 mM lithium sulfate, 0.03 mM NADPH (reduced nicotinamide adenine dinucleotide phosphate), and 20 mM glucose as a substrate. The sample was allowed to react for 30 min. at 30° C. Then the reaction was stopped by addition of 0.3 ml of 0.5N hydrochloric acid. By adding 1 ml of 6N sodium hydroxide containing 10 mM imidazole, the NADP (oxidized nicotinamide adenine dinucleotide phosphate) formed in the above reaction was converted into a fluorescent substance, and 30 min. thereafter, the sample was measured for fluorescence intensity at the fluorescence wavelength of 460 nm (excitation wavelength: 360 nm) using fluorescence photometer F-4000 (manufactured by Hitachi, Ltd.) at room temperature. A sample containing DMSO in place of the present compound was used as a control group, and its fluorescence intensity was determined in the same manner as described above.
# Aldose reductase is an enzyme that converts DL-glyceraldehyde or glucose into polyol in the presence of […] as a coenzyme, and as the reaction proceeds, NADPH is converted into NADP.
# Aldose reductase [2] = target: T1, Aldose reductase; assay: Aldose reductase activity measurement (in vivo), sorbitol in sciatic nerves of STZ diabetic rats; parameters: species or system Wistar male rats; details: sciatic nerve sorbitol, oral for 2 weeks, 100 mg/kg (other compounds stated at 30 mg/kg)
# Method: <Aldose reductase activity measurement (in vivo)>
# A solution of streptozotocin (STZ) in 10 mM citrate buffer (pH 4.5) was administered intravenously to the tails of 6 week-old Wistar male rats in a dosage of 65 mg/kg. 48 hours thereafter, blood was collected from the carotid arteries of the rats. Rats with a blood sugar level of higher than 200 mg/dl were classified as diabetic rats, among which rats with a persistent high level of blood sugar were employed in the experiment. The blood sugar level was determined by the glucose oxidase method. […]
# After 2-week administration, the sciatic nerves were removed from the rat under ether anesthesia, then weighed, and stored at -20° C.
# The content of sorbitol in the sciatic nerves was determined as follows.
# The sciatic nerves were extracted at 100° C. for 20 min. with 1 ml purified water containing 10 μg/ml arabinitol, and then 0.2 ml of 0.2M barium hydroxide and 0.2 ml of 0.19M zinc sulfate were added thereto. The sample was centrifuged (3000 rpm, 30 min.) and the supernatant was evaporated to dryness. The residue thus obtained was trimethysilylated and was then analyzed by gas chromatography.
# Sorbitol is an intermediate which occurs upon the conversion of glucose into fructose by aldose reductase and is accumulated together with fructose in the crystalline lenses and sciatic nerves particularly under a high level of blood sugar. […]
IC50 (Aldose reductase [1]) [M],Repression (%) (Aldose reductase [2]),Compound
2.3e-07,–,"CC(C)Oc1cc(O)c2c(=O)cc(Sc3ccc(O)cc3)oc2c1 [Example 5, 5-hydroxy-2-(4-hydroxyphenylthio)-7-isopropoxychromone]"
–,18.9,COc1c(O)cc2oc(Oc3ccc(O)cc3)cc(=O)c2c1O [Capillarisin]
1.8e-08,–,"CC(C)Oc1cc(OC(C)C)c2c(=O)cc(Sc3ccc(O)cc3)oc2c1 [Example 1, 2-(4-hydroxyphenylthio)-5,7-di-isopropoxychromone]"
3.2e-07,–,"O=c1cc(Sc2ccc(O)cc2)oc2cc(O)cc(O)c12 [Example 4, 5,7-dihydroxy-2-(4-hydroxyphenylthio)chromone]"
8e-08,–,"COc1cc(OC(C)C)cc2oc(Sc3ccc(O)cc3)cc(=O)c12 [Example 6, 2-(4-hydroxyphenylthio)-7-isopropoxy-5-methoxychromone]"
